Results on one compound are retold here after US20240108570A1, “METHOD AND COMPOSITION FOR DELIVERING A COMPOUND THROUGH A BIOLOGICAL BARRIER” (priority 2012, published 2024).

Molecules are shown by their SMILES.

One series has as its system ex vivo pig skin. The format is in vitro ADME. The protocol:
FIG. 12 represents comparison of delivery of sodium fluorescein to ex vivo pig skin. Pig skin was sourced and prepared for drug treatment as described for FIG. 10. For EMP delivery, 50 μL of the payload solution (1 mg/mL sodium fluorescein) was gently mixed with or without 5 mg of either the ‘short’ or ‘long’ EMP preparations. The samples were then scraped onto the surface of the skin. Administration was achieved by massaging the solution for 30 s using small circular motions within a 3 cm 2 circular area. To maintain consistency between administrations, a small hand-held applicator was designed resulting in an application force of 0.25 N (as described in AU2012905650). After administration, the payload was left on the skin for 5 min followed by removal of excess solution with cotton swabs. The centre of the application area was excised using a 6 mm circular punch biopsy. A total of 6 samples were done per group. Each sample was stored at −20° C. prior to analysis. […] FIG. 12d represents fluorescence confocal microscopy mosaic images of the pig skin with topical application of sodium fluorescein only (no EMP). […] The images in FIGS. 12d to 12l have been pseudo-colored in greyscale, where black corresponds to 0 (min) fluorescence intensity and white corresponds to 255 (max) fluorescence intensity, as shown on the scale superimposed on FIG. 12l.

The test system of a further series is vaginal tracts of mice. The settings on record: mouse, in vivo.
Series [1] relates to freshly excised, non-diseased human skin. Type of series: in vitro ADME. As to the method: The results are illustrated in FIGS. 5 to 8.
FIGS. 7 and 8 illustrate the effect of application forces on the penetration of sodium fluorescein in conjunction with ‘long’ EMPs. Measurements were made 15 minutes after application to freshly excised, non-diseased human skin (from female, Caucasian, abdominal plastic surgery patients). […] Application forces of 0.2N, 5N and 10N were all applied using a gloved finger on a scale. The excised skin is place on the scale and the finger is applied to the EMPs/skin until a weight is achieved on the scale corresponding to either 0.2, 5 or 10 N.) All forces are effective in improving penetration of sodium fluorescein into the stratum spinosum. There was an apparent optimum application force of 5N under the conditions of the tests.

The subject of series [2] is volar forearm skin of human volunteers. Conditions: in vivo. An excerpt:
In both Examples 4 and 5, elongate microparticles (EMPs) were fabricated from silicon using deep reactive ion etching. Lithography was used to pattern a silicon wafer that was then coated with SU-8 photoresist. After a post exposure bake, the resist was developed in […]. The SU8 structures remaining served as a physical mask during etching, which were etched using a Bosch process. The etched EMPs were washed three times in acetone, followed by three washes in 100% ethanol and lastly three times in distilled water. Prior to application the EMPs were removed from the silicon wafer.
The ability of silicon EMPs of various diameters to penetrate the skin was determined by application of a mixture of sodium fluorescein and EMPs to the volar forearm of four human, healthy volunteers using a plastic applicator as described in provisional patent application AU2012905650. 50 μL of the sodium fluorescein solution having a concentration of 1 mg/mL was mixed with 5 mg of silicon EMPs and applied to the forearm using a gentle massage motion with the applicator. […]
Three different populations of EMPs were used to assess the influence of EMP diameter on penetration and delivery. […] Grouped data was analysed using a one-way ANOVA with a Tukey's multiple comparison test.

For another series, the system named is skin of human volunteers. Conditions: in vivo.
Another series concerns in vivo pig skin. As to the method:
FIG. 13 represents comparison of delivery of sodium fluorescein to in vivo pig skin. In vivo experiments were conducted on 6 female Landrace weaner pigs weighing approx. 10-15 kg (Centre for Advanced Animal Science, The University of Queensland Gatton Campus, Australia). The pigs were anaesthetized intramuscularly by co-administration of Butorphanol (0.15 mg/kg) and Zoletil (5 mg/kg) followed by intubation with isoflurane to maintain unconsciousness. Following anesthesia the flanks of the pigs were washed with soapy water and patted dry. The flank was then shaved gently using an electric razor. The flank was marked, to separate the application areas (2 cm diameter circles, 2 cm apart). Payload administration and amounts were done using the same parameters as for ex vivo. After all the groups/samples were applied and swabbed, the pig was turned over and the procedure repeated to the other flank (resulting in 12 samples per group). Finally, the pig was culled and the center of the application areas was excised using a 6 mm circular punch biopsy. Each sample was placed on dry-ice followed by storage at −20° C. prior to analysis.

Method for excised human skin: Both ex vivo and in vivo tissue samples were analysed en face using fluorescence (excited at 488 nm) and reflectance (excited at 750 nm) confocal microscopy (Vivascope® 1500 Multilaser, Lucid Inc., USA). The microscope also consisted of a dermatoscope, which was used to image and position the skin prior to microscopy. The samples were optically sectioned at 1.5 μm intervals from the surface of the skin down to a depth of 150 μm. Each optical slice consisted of a focal area of 500×500 μm^2.
In relation to the sodium fluorescein signal, an area 300×300 μm^2 in size was selected in the center of the image and the raw integrated density was measured throughout the entire stack. The data were then divided by the analysed area (9000 μm^2) resulting in the sodium fluorescein integrated density per μm^2.
A mixture was formed of by taking 50 μl of sodium fluorescein dye (1 mg/mL) and mixed with or without 5 mg of silica EMP This mixture was applied to previously frozen or freshly excised human skin under varying conditions of EMP length and/or application force.
The skin was stored at −20° C. and then brought to room temperature prior to use. […] It is measured by dividing the sodium fluorescein pixel intensity achieved with EMPs by the sodium fluorescein pixel intensity achieved without EMPs. […]
Method for excised pig skin: Excised pig ears sourced from a local abattoir were washed with soap and water followed by rinsing. The ears were stored at −20° C. until required. The ears were thawed and then gently shaved to remove excessive hair, then rinsed and pat dried. The ventral side of the ear was then separated from the cartilage using a scalpel. The excised skin was pinned down on a cork-board maintaining slight tension across the surface. For EMP delivery, 50 μL of the payload solution (1 mg/mL sodium fluorescein, 0.01 mCi/mL vitamin A or 0.01 mCi/mL, vitamin B3 respectively) was gently mixed with 5 mg of either the ‘short’ or ‘long’ EMP preparations. The samples were then scraped onto the surface of the skin.
Administration was achieved by massaging the payload mixture for 30 s using small circular motions within a 3 cm 2 circular area. […] After administration, the payload was left on the skin for 5 min followed by removal of excess solution with cotton swabs. The center of the application area was excised using a 6 mm circular punch biopsy. A total of 6 samples were done per group. Each sample was stored at −20° C. prior to analysis.
The integrated density of sodium fluorescein is directly related to the concentration of the drug within the skin. […] In this case, skin was pinned out taut on a cork board, epidermal side uppermost. Tritiated compound was applied to the skin surface and left for 15 minutes. […]
Method for vaginal tracts of mice: In these in vivo mouse experiments, a 10 μl quantity of sodium fluorescein (1 mg/ml) was pipetted into the vaginal tracts of mice. In one group of mice, dye application occurred only after prior application of a small quantity of EMP (5 mg). The dye solution was gently massaged with a rod-like applicator. Vaginal tracts were removed at sacrifice and mounted for cryosectioning.

On to `O=C([O-])c1ccccc1-c1c2ccc(=O)cc-2oc2cc([O-])ccc12.[Na+].[Na+]` [sodium fluorescein], for which the “enhancement of penetration of sodium fluorescein” value in the series with excised pig skin is reported as “superior ability”. In addition, the “fluorescence detected below the surface of the skin” value in the series with ex vivo pig skin is given as “minimal fluorescence”. Besides, in the series with vaginal tracts of mice, the “penetration depth within the epithelium” value was “about 60 μm” and the “penetration depth within the epithelium relative to delivery in the absence of EMP” value was “more than 4 times”. Moreover, in the series with excised human skin, the “amount of sodium fluorescein penetrated (into the stratum spinosum)” value is on record as “greatest amount” and the “transdermal delivery of sodium fluorescein dye” value was “greatly enhance”. For the same compound, in series [1], the “increase in delivery of sodium fluorescein dye across the stratum corneum” value is on record as “several-fold increase”. The “amount of sodium fluorescein detected” value in series [2] is given as “no significant difference”. Further, in the series on skin of human volunteers, the “penetration of topically applied sodium fluorescein” value is “more lasting and deeper penetration”. Besides, in the series with in vivo pig skin, the “fluorescence detected below the surface of the skin” value is recorded as “Minimal fluorescence” and the sodium fluorescein signal result is reported as “greater signal”.
